Experimental data: patent US20070232492A1, “Herbicidal Composition” (Ishihara Sangyo Kaisha, LTD., priority 2004, published 2007)
Where two headings read alike, the source gives them in different places.

Tested on: barnyardgrass (Echinochloa oryzicola vasing)
Experiment: Growth inhibition of barnyardgrass in paddy soil pots, application under submerged condition, visual rating (observed value) and Colby expected value
Assay type: in vivo
Conditions: for inhibition at 50 g/ha: 0.5 g/a; for inhibition at 51 g/ha: 0.51 g/a; for inhibition at 7.9 g/ha: 0.079 g/a; for inhibition at 15.8 g/ha: 0.158 g/a; for inhibition at 112.5 g/ha: 1.125 g/a; for inhibition at 225 g/ha: 2.25 g/a
Text: When the herbicidal activity in a case where two active ingredients are combined, is larger than the simple sum of the respective herbicidal activities of the two active ingredients (the expected activity), it is called a synergistic effect. The activity expected by the combination of two active ingredients can be calculated as follows (Colby S. R., “Weed”, vol. 15, p. 20-22, 1967). E=p+q−(p×q÷100) where p: growth inhibition rate when treated with x (g/a) of herbicide X,
q: growth inhibition rate when treated with y (g/a) of herbicide Y,
E: growth inhibition rate expected when treated with x (g/a) of herbicide X and y (g/a) of herbicide Y.
Namely, when the actual growth inhibition rate (observed value) is larger than the growth inhibition rate by the above calculation (expected value), the activity by the combination can be regarded as showing a synergistic effect.
Paddy field soil was put into a 1/10,000 are pot, and seeds of barnyardgrass (Echinochloa oryzicola vasing) were sown and left to stand under an irrigated condition with a water depth of 3.5 cm. When barnyardgrass reached 2.0 to 2.5 leaf stage, wettable powders of compound A2 and compound (B1.1) were, respectively, diluted with water and applied under submerged condition so that the active ingredients became the prescribed amounts, respectively. The state of growth was visually observed 21 days after application, and the growth inhibition rate (%) evaluated in accordance with the following evaluation standard (observed value) and the growth inhibition rate (%) calculated by the above-mentioned Colby method (expected value) are shown in Table 1.
Growth inhibition rate (%)=0% (equivalent to the non-treated area) to 100% (complete kill)
(§1) Paddy field soil was put into a 1/10,000 are pot, and seeds of barnyardgrass (Echinochloa oryzicola vasing) were sown and left to stand under an irrigated condition with a water depth of 3.5 cm. When barnyardgrass reached 2.0 to 2.5 leaf stage, wettable powders of compound A2 and compound (B2.1) were, respectively, diluted with water and applied under submerged condition so that the active ingredients became the prescribed amounts, respectively. The state of growth was visually observed 21 days after application, and evaluation and calculation were carried out in the same manner as in the above Test Example 1.
as §1, with “leaf stage, a wettable powder” for “leaf stage, wettable powders”, “a wettable powder of compound” for “stage, wettable powders of compound”, “A2 and an emulsifiable concentrate of compound (B3.1)” for “A2 and compound (B2.1)”, “of compound (B3.1) were, respectively,” for “and compound (B2.1) were, respectively,”
as §1, with “(B4.1)” for “(B2.1)”
Paddy field soil was put into a 1/10,000 are pot, and seeds of barnyardgrass (Echinochloa oryzicola vasing) were sown and left to stand under an irrigated condition with a water depth of 3.5 cm. […]

[1] = Echinochloa oryzicola, soil, 336 h, 2.8 to 3.4 leaf stage, 14 days after application, Test Examples 66-72, read-out: Growth inhibition rate (%) Observed
[2] = Echinochloa oryzicola, soil, 504 h, 2.0 to 2.5 leaf stage, 21 days after application, read-out: Growth inhibition rate (%) Observed
[3] = Echinochloa oryzicola, soil, 528 h, 2.5 to 3.0 leaf stage, 22 days after application, read-out: Growth inhibition rate (%) Observed
[4] = Echinochloa oryzicola, soil, 504 h, 3.0 to 3.3 leaf stage, 21 days after application, read-out: Growth inhibition rate (%) Observed
[5] = Echinochloa oryzicola, soil, 528 h, 2.1 to 3.2 leaf stage, 22 days after application, read-out: Growth inhibition rate (%) Observed

Compound: CS(=O)(=O)c1ccc(C(=O)C2C(=O)CCCC2=O)c([N+](=O)[O-])c1 [Compound (B4.2), mesotrione]
- inhibition at 25 g/ha (Echinochloa oryzicola, soil, 336 h, 0.25 g/a, 2.8 to 3.4 leaf stage, 14 days after application, Test Examples 66-72, read-out: Growth inhibition rate (%) Observed): 0%
- inhibition at 50 g/ha [1]: 0%
- inhibition at 25 g/ha (Echinochloa oryzicola, soil, 504 h, 0.25 g/a, 2.0 to 2.5 leaf stage, 21 days after application, read-out: Growth inhibition rate (%) Observed): 0%
- inhibition at 50 g/ha [2]: 0%

Compound: COC(=O)c1c(Cl)nn(C)c1S(=O)(=O)NC(=O)Nc1nc(OC)cc(OC)n1 [Compound (B1.6), halosulfuron-methyl]
- inhibition at 30 g/ha (Echinochloa oryzicola, soil, 456 h, read-out: Growth inhibition rate (%) Observed, 0.3 g/a, 2.8 to 3.2 leaf stage, 19 days after application, Test Examples 62-65): 25%
- inhibition at 60 g/ha (Echinochloa oryzicola, soil, 456 h, read-out: Growth inhibition rate (%) Observed, 0.6 g/a, 2.8 to 3.2 leaf stage, 19 days after application, Test Examples 62-65): 40%

Compound: COc1cc(OC)nc(NC(=O)NS(=O)(=O)c2c(Cl)nc3ccccn23)n1 [Compound (B1.4), imazosulfuron]
- inhibition at 45 g/ha (Echinochloa oryzicola, soil, 336 h, 0.45 g/a, 2.8 to 3.4 leaf stage, 14 days after application, Test Examples 66-72, read-out: Growth inhibition rate (%) Observed): 25%
- inhibition at 90 g/ha (Echinochloa oryzicola, soil, 336 h, 0.9 g/a, 2.8 to 3.4 leaf stage, 14 days after application, Test Examples 66-72, read-out: Growth inhibition rate (%) Observed): 40%
- inhibition at 33.8 g/ha (Echinochloa oryzicola, soil, 528 h, 0.338 g/a, 2.5 to 3.0 leaf stage, 22 days after application, read-out: Growth inhibition rate (%) Observed): 53%
- inhibition at 67.5 g/ha (Echinochloa oryzicola, soil, 528 h, 0.675 g/a, 2.5 to 3.0 leaf stage, 22 days after application, read-out: Growth inhibition rate (%) Observed): 57%

Compound: COC(=O)c1ccccc1CS(=O)(=O)NC(=O)Nc1nc(OC)cc(OC)n1 [Compound (B1.1), bensulfuron-methyl]
- inhibition at 25.5 g/ha (Echinochloa oryzicola, soil, 336 h, 0.255 g/a, 2.8 to 3.4 leaf stage, 14 days after application, Test Examples 66-72, read-out: Growth inhibition rate (%) Observed): 30%
- inhibition at 51 g/ha [1]: 45%
- inhibition at 26 g/ha (Echinochloa oryzicola, soil, 504 h, 0.26 g/a, 2.0 to 2.5 leaf stage, 21 days after application, read-out: Growth inhibition rate (%) Observed): 47%
- inhibition at 51 g/ha [2]: 57%

Compound: CCOc1ccccc1OS(=O)(=O)NC(=O)Nc1nc(OC)cc(OC)n1 [Compound (B1.5), ethoxysulfuron]
- inhibition at 10.5 g/ha (Echinochloa oryzicola, soil, 336 h, 0.105 g/a, 2.8 to 3.4 leaf stage, 14 days after application, Test Examples 66-72, read-out: Growth inhibition rate (%) Observed): 10%
- inhibition at 21 g/ha (Echinochloa oryzicola, soil, 336 h, 0.21 g/a, 2.8 to 3.4 leaf stage, 14 days after application, Test Examples 66-72, read-out: Growth inhibition rate (%) Observed): 20%
- inhibition at 7.9 g/ha [3]: 0%
- inhibition at 15.8 g/ha [3]: 3%

Compound: Cc1ccc(S(=O)(=O)Oc2c(C(=O)c3ccc(Cl)cc3Cl)c(C)nn2C)cc1 [Compound (B4.5), pyrazolynate]
- inhibition at 500 g/ha (Echinochloa oryzicola, soil, 456 h, 5 g/a, 2.8 to 3.2 leaf stage, 19 days after application, Test Examples 62-65, read-out: Growth inhibition rate (%) Observed): 0%
- inhibition at 1000 g/ha (Echinochloa oryzicola, soil, 456 h, 10 g/a, 2.8 to 3.2 leaf stage, 19 days after application, Test Examples 62-65, read-out: Growth inhibition rate (%) Observed): 0%

Compound: Cc1nn(C)c(OCC(=O)c2ccccc2)c1C(=O)c1ccc(Cl)cc1Cl [Compound (B4.3), pyrazoxyfen]
- Growth inhibition rate (%) Observed (5.63 g/a, 2.5 to 3.0 leaf stage, 22 days after application): 0%
- Growth inhibition rate (%) Observed (11.25 g/a, 2.5 to 3.0 leaf stage, 22 days after application): 10%

Compound: CC(C)(NC(=O)NCc1ccccc1Cl)c1ccccc1 [Compound (B6.2), cumyluron]
- inhibition at 750 g/ha (Echinochloa oryzicola, soil, 504 h, 7.5 g/a, 2.0 to 2.5 leaf stage, 21 days after application, read-out: Growth inhibition rate (%) Observed): 3%
- inhibition at 1500 g/ha (Echinochloa oryzicola, soil, 504 h, 15 g/a, 2.0 to 2.5 leaf stage, 21 days after application, read-out: Growth inhibition rate (%) Observed): 3%

Compound: CCOC(=O)c1cnn(C)c1S(=O)(=O)NC(=O)Nc1nc(OC)cc(OC)n1 [Compound (B1.3), pyrazosulfuron-ethyl]
- inhibition at 7.9 g/ha [4]: 20%
- inhibition at 15.8 g/ha [4]: 37%
- inhibition at 7.9 g/ha [3]: 50%
- inhibition at 15.8 g/ha [3]: 70%

Compound: Cc1ccc(C(=O)COc2c(C(=O)c3ccc(Cl)c(C)c3Cl)c(C)nn2C)cc1 [Compound (B4.6), benzofenap]
- Growth inhibition rate (%) Observed (5 g/a, 2.8 to 3.2 leaf stage, 19 days after application, Test Examples 62-65): 0%
- Growth inhibition rate (%) Observed (10 g/a, 2.8 to 3.2 leaf stage, 19 days after application, Test Examples 62-65): 0%

Compound: COCc1cccc(C(O)c2nc(OC)cc(OC)n2)c1NS(=O)(=O)C(F)F (stereo not drawn) [Compound (B2.2), KUH-021]
- Growth inhibition rate (%) Observed (0.25 g/a, 2.8 to 3.2 leaf stage, 21 days after application, Test Examples 39-43): 60%
- Growth inhibition rate (%) Observed (0.335 g/a, 2.8 to 3.2 leaf stage, 21 days after application, Test Examples 39-43): 68%

Compound: CO/N=C(\C)c1cccc(Oc2nc(OC)cc(OC)n2)c1C(=O)OC [Compound (B2.1), pyriminobac-methyl]
- inhibition at 90 g/ha (Echinochloa oryzicola, soil, 336 h, read-out: Growth inhibition rate (%) Observed, 0.9 g/a, 2.8 to 3.4 leaf stage, 14 days after application, Test Examples 66-72): 60%
- inhibition at 22.5 g/ha (Echinochloa oryzicola, soil, 504 h, read-out: Growth inhibition rate (%) Observed, 0.225 g/a, 2.0 to 2.5 leaf stage, 21 days after application): 60%
- inhibition at 45 g/ha (Echinochloa oryzicola, soil, 504 h, read-out: Growth inhibition rate (%) Observed, 0.45 g/a, 2.0 to 2.5 leaf stage, 21 days after application): 80%

Compound: CS(=O)(=O)c1ccc(C(=O)C2C(=O)CCCC2=O)c(Cl)c1COCC1CCCO1 (stereo not drawn) [Compound (B4.4), AVH-301]
- inhibition at 112.5 g/ha [1]: 0%
- inhibition at 225 g/ha [1]: 0%
- inhibition at 112.5 g/ha [5]: 13%
- inhibition at 225 g/ha [5]: 13%
